In patent US20240043435A1, “TYK-2 INHIBITOR” (BEIGENE, LTD., priority 2020, published 2024):
One block for each compound: values may come before it.

Assays:
[1] = biological target: T1, TYK2-JH2 (aa 575-869, in-house) protein (Homo sapiens, UniProt P29597); assay: TYK2-JH2 biochemical assay (HTRF probe displacement); type: binding; conditions: for IC50: Biochemical assay, read-out: TYK2-JH2 IC50
T1 construct: TYK2-JH2 (aa 575-869, in-house) protein; made in house
Protocol: Assay A: TYK2-JH2 Biochemical Assay
Compounds disclosed herein were tested for blocking of TYK2-JH2 (aa 575-869, in-house) protein with its probe in an assay based on Homogeneous Time Resolved Fluorescence. Compound dilution is done according to the following protocol: (1) Prepare 500× compounds solution in DMSO from 500 uM by 5-fold dilution, total 10 doses were included; (2) Prepare 10× compounds solution in an assay buffer containing 20 mM HEPES, pH 7.5, 10 mM MgCl2, 0.005% BSA, 2 mM DTT, 0.015% Brij-35 by transferring 1 μl serial 500× stock solution into 49 μl assay buffer. […] of 0.2 nM recombinant TYK2-JH2 protein was pre-incubated with 1 μl of 10× serial dilution of compounds at room temperature for 0.5 hour. […] The HTRF signals (ex337 nm, em620 nm/665 nm) were read on BMG PHERAstar FS instrument. The inhibition percentage of TYK2 interaction with its probe in presence of increasing concentrations of compounds was calculated based on the ratio of fluorescence at 615 nm to that at 665 nm. The IC50 for each compound was derived from fitting the data to the four-parameter logistic equation by Dotmatics.

[2] = tested on: JAK2, TYK2/p-STAT4 (Tyr693) activated by IL-12 in NK-92 cell line; assay: IL-12-JAK2, TYK2/p-STAT4 (Tyr693) inhibition IC50 cellular assay; type: cell-based; conditions: for IC50: NK92, Cellular assay, read-out: pSTAT4/IL-12 IC50
Description: Assay C: IL-12-JAK2, TYK2/p-STAT4 (Tyr693) Inhibition IC50 Cellular Assay
To evaluate the inhibition effect of compounds disclosed herein on JAK2, TYK2/p-STAT4 (Tyr693) activated by IL-12 in NK-92 cell line, NK-92 cells were collected and washed 3 times by DPBS and resuspended in MEM-α (GIBCO, Cat #12561056) with 10% FBS (Gibco, Cat #10099, Lot #1891605), without IL-2 (R&D systems, Cat #202-IL), starved overnight. Cells were collected and resuspended in 1640 medium (phenol red free, Gibco, Cat #11835-030) with 0.1% BSA, and 12.5 μl/5×10^4/well cell suspension were seeded to the 96-well plate (Corning, Cat #3799). Then cells were treated with compounds diluted in 0.2% DMSO 1640 medium, at 37° C., 1 h. Dilution is done according to the following protocol: (1) make 500× compounds solution in DMSO from 5 mM by 4-fold dilution, total 8 doses were included; (3) make 2× compounds solution in assay medium by transferring 0.5 μl serial 500× stock solution into 125 μl assay medium; (4) 15 μl of 2× serial solution is added to cells and incubate at 37° C. for 1 h, the final compound conc. is 10000, 2500, 625, 156.25, 39, 9.8, 2.4 and 0.61 nM, respectively. After 1 h, cells were treated with 2.5 μl medium containing IL-12 at 37° C. (R&D systems, Cat #219-IL-005, final conc. 40 ng/ml), 30 min. Following cells were lysed with 7.5 μl lysis buffer at RT, shaking on shaker for 1 h. 10 μL of cell lysate were transferred to a PE 384-well Proxiplate detection plate, and 5 μL of pre-mixed Alphascreen beads were added to each well. Covered the plate with a plate sealer, span 1000 rpm for 1 min, mix, Incubated overnight at room temperature. Read on BMG PheraStar with Alphascreen protocol. IC 50 values were calculated by fitting dependent data to the four-parameter logistic model using dotmatics software. The assay was performed by using AlphaLISA SureFire Ultra p-STAT4 (Tyr693) Assay Kit—High Volume (PE, Cat #ALSU-PST4-A-HV).

pSTAT5/GM-CSF = pSTAT5/GM-CSF cellular assay (JAK2 selectivity); type: cell-based; conditions: for Selectivity fold (TYK2/JAK2): pSTAT5/GM-CSF IC50 over pSTAT4/IL-12 IC50

T1 sequence (P29597 575-869): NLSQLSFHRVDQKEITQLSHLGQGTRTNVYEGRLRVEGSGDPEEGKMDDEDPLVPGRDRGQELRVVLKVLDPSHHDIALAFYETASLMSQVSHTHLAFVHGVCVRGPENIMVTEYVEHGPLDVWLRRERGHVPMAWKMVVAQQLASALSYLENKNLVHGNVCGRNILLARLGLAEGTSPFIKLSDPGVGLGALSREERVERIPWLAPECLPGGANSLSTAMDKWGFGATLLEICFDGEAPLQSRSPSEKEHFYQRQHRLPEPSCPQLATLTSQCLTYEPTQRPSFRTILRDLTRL

IC50 [1]: 0.015 nM
Compound: CC(=O)Nc1cc(Nc2cc(N3CC4CC4C3)cc(S(C)(=O)=O)n2)c(-c2ccc3c(n2)OCC(C)(C)O3)cn1 (centres unmarked) [Example Q106, N-(4-((4-(3-azabicyclo[3.1.0]hexan-3-yl)-6-(methylsulfonyl)pyridin-2-yl)amino)-5-(2,2-dimethyl-2,3-dihydro-[1,4]dioxino[2,3-b]pyridin-6-yl)pyridin-2-yl)acetamide]

IC50 [2]: 1.21 nM | IC50 (pSTAT5/GM-CSF): > 10 µM
Compound: COCCOc1cc(Nc2cc(NC(C)=O)ncc2-c2ccccn2)nc(S(C)(=O)=O)c1 [Example B6, N-(4′-((4-(2-methoxyethoxy)-6-(methylsulfonyl)pyridin-2-yl)amino)-[2,3′-bipyridin]-6′-yl)acetamide]
Selectivity fold (TYK2/JAK2) ([2]; Cellular assay, pSTAT5/GM-CSF IC50 vs pSTAT4/IL-12 IC50): >8264 fold

IC50 [2]: 1.18 nM | IC50 (pSTAT5/GM-CSF): > 10 µM
Compound: CC(=O)Nc1cc(Nc2cc(-c3ccc(C#N)nc3)cc(S(C)(=O)=O)n2)c(-c2ccc3c(n2)OCC(C)(C)O3)cn1 [Example Q108, N-(4-((6-cyano-6′-(methylsulfonyl)-[3,4′-bipyridin]-2′-yl)amino)-5-(2,2-dimethyl-2,3-dihydro-[1,4]dioxino[2,3-b]pyridin-6-yl)pyridin-2-yl)acetamide]
Selectivity fold (TYK2/JAK2) (pSTAT5/GM-CSF): >8474 fold

IC50 [1]: 0.048 nM
Compound: CCn1ccc(-c2cnc(NC(C)=O)cc2Nc2cc(OCC3CC3)cc(S(C)(=O)=O)c2)n1 [Example M16, N-(4-((3-(cyclopropylmethoxy)-5-(methylsulfonyl)phenyl)amino)-5-(1-ethyl-1H-pyrazol-3-yl)pyridin-2-yl)acetamide]

IC50 [1]: 0.13 nM
Compound: CC(=O)Nc1cc(Nc2cc(OC(C)C)cc(S(C)(=O)=O)c2)c(-c2ccc(F)cn2)cn1 [Example F14, N-(5-fluoro-4′-((3-isopropoxy-5-(methylsulfonyl)phenyl)amino)-[2,3′-bipyridin]-6′-yl)acetamide]

IC50 [1]: 0.26 nM
Compound: CC(=O)Nc1cc(Nc2cccc(S(C)(=O)=O)n2)c(-c2cnn(C)c2)cn1 [Example A8, N-(5-(1-methyl-1H-pyrazol-4-yl)-4-((6-(methylsulfonyl)pyridin-2-yl)amino)pyridin-2-yl)acetamide]

IC50 [1]: 0.033 nM
Compound: CC(=O)Nc1cc(Nc2cc(N3CC[C@@H](OCCO)C3)cc(S(C)(=O)=O)n2)c(-c2ccc3c(n2)OCC(C)(C)O3)cn1 [Example Q59, (R)-N-(5-(2,2-dimethyl-2,3-dihydro-[1,4]dioxino[2,3-b]pyridin-6-yl)-4-((4-(3-(2-hydroxyethoxy)pyrrolidin-1-yl)-6-(methylsulfonyl)pyridin-2-yl)amino)pyridin-2-yl) acetamide]

Compound: CC(=O)Nc1cc(Nc2cc(O[C@H]3C[C@H](O)C3)cc(S(C)(=O)=O)c2)c(-c2ccc(C(F)(F)F)cn2)cn1 [Example F5, N-(4′-((3-((trans)-3-hydroxycyclobutoxy)-5-(methylsulfonyl)phenyl)amino)-5-(trifluoromethyl)-[2,3′-bipyridin]-6′-yl)acetamide]
IC50 [1]: 0.061 nM

IC50 [1]: 0.065 nM
Compound: CC(=O)Nc1cc(Nc2cc(OC(C)C)cc(S(C)(=O)=O)n2)c(-c2ccc3nccn3n2)cn1 [Example Q5, N-(5-(imidazo[1,2-b]pyridazin-6-yl)-4-((4-isopropoxy-6-(methylsulfonyl)pyridin-2-yl)amino)pyridin-2-yl)acetamide]

IC50 [1]: 0.097 nM
Compound: CC(=O)Nc1cc(Nc2cc(C3CCOCC3)cc(S(C)(=O)=O)n2)c(-c2ccc3c(n2)OCC(C)(C)O3)nn1 [Example Q58, N-(6-(2,2-dimethyl-2,3-dihydro-[1,4]dioxino[2,3-b]pyridin-6-yl)-5-((6-(methylsulfonyl)-4-(tetrahydro-2H-pyran-4-yl)pyridin-2-yl)amino)pyridazin-3-yl)acetamide]

IC50 [1]: 0.052 nM
Compound: CC(=O)Nc1cc(Nc2cc(OC(C)C)cc(S(C)(=O)=O)n2)c(-c2ccc(F)cn2)cn1 [Example F18, N-(5-fluoro-4′-((4-isopropoxy-6-(methylsulfonyl)pyridin-2-yl)amino)-[2,3′-bipyridin]-6′-yl)acetamide]

IC50 [1]: 0.087 nM
Compound: COCCOc1cc(Nc2cc(NC(C)=O)ncc2-c2ccc(C(F)(F)F)cn2)cc(S(C)(=O)=O)c1 [Example F8, N-(4′-((3-(2-methoxyethoxy)-5-(methylsulfonyl)phenyl)amino)-5-(trifluoromethyl)-[2,3′-bipyridin]-6′-yl)acetamide]

IC50 [1]: 0.031 nM
Compound: CC(=O)Nc1cc(Nc2cc(C3CCOC3)cc(S(C)(=O)=O)n2)c(-c2ccc3c(n2)OCC(C)(C)O3)cn1 (centres unmarked) [Example Q86, N-(5-(2,2-dimethyl-2,3-dihydro-[1,4]dioxino[2,3-b]pyridin-6-yl)-4-((6-(methylsulfonyl)-4-(tetrahydrofuran-3-yl)pyridin-2-yl)amino)pyridin-2-yl)acetamde]

Compound: Cc1cc(C)cc(Nc2cc(NCCNC(=O)CCOCCOCCOCCOCCOCCOCCNC(=O)CCCC[C@@H]3SC[C@@H]4NC(=O)N[C@@H]43)c3ncc(C(N)=O)n3n2)c1 [Probe 1, 6-((3,5-dimethylphenyl)amino)-8-((4,26-dioxo-30-((3aS,4S,6aR)-2-oxohexahydro-1H-thieno[3,4-d]imidazol-4-yl)-7,10,13,16,19,22-hexaoxa-3,25-diazatriacontyl)amino)imidazo[1,2-b]pyridazine-3-carboxamide, reference compound]
Kd ([1]; in-house probe of the TYK2-JH2 assay): 10 nM

IC50 [1]: 0.045 nM
Compound: CC(=O)Nc1cc(Nc2cc(C)cc(S(C)(=O)=O)n2)c(-c2cc(C(C)(C)O)ccn2)cn1 [Example B10, N-(4-(2-hydroxypropan-2-yl)-4′-((4-methyl-6-(methylsulfonyl)pyridin-2-yl)amino)-[2,3′-bipyridin]-6′-yl)acetamide]

IC50 [1]: 0.13 nM
Compound: CC(=O)Nc1cc(Nc2nc(S(C)(=O)=O)ccc2OC(C)C)c(-c2ccn(C)n2)cn1 [Example J49, N-(4-((3-isopropoxy-6-(methylsulfonyl)pyridin-2-yl)amino)-5-(1-methyl-1H-pyrazol-3-yl)pyridin-2-yl)acetamide]

IC50 [2]: 1.08 nM | IC50 (pSTAT5/GM-CSF): > 10 µM
Compound: CC(=O)Nc1cc(Nc2cc(-c3nccnc3C)cc(S(C)(=O)=O)n2)c(-c2ccc3c(n2)OCC(C)(C)O3)cn1 [Example Q110, N-(5-(2,2-dimethyl-2,3-dihydro-[1,4]dioxino[2,3-b]pyridin-6-yl)-4-((4-(3-methylpyrazin-2-yl)-6-(methylsulfonyl)pyridin-2-yl)amino)pyridin-2-yl)acetamide]
Selectivity fold (TYK2/JAK2) (pSTAT5/GM-CSF): >9259 fold

IC50 [2]: 3.29 nM | IC50 (pSTAT5/GM-CSF): > 10 µM
Compound: CC(=O)Nc1cc(Nc2cc(N3CCC4(CC4)C3)cc(S(C)(=O)=O)n2)c(-c2ccc3c(n2)OCC(C)(C)O3)cn1 [Example Q97, N-(5-(2,2-dimethyl-2,3-dihydro-[1,4]dioxino[2,3-b]pyridin-6-yl)-4-((6-(methylsulfonyl)-4-(5-azaspiro[2.4]heptan-5-yl)pyridin-2-yl)amino)pyridin-2-yl)acetamide]
Selectivity fold (TYK2/JAK2) (pSTAT5/GM-CSF): >3039 fold

IC50 [2]: 44 nM | IC50 (pSTAT5/GM-CSF): > 10 µM
Compound: CC(=O)Nc1cc(Nc2nc(S(C)(=O)=O)ccc2C2CCOCC2)c(-c2ccc3c(n2)OCC(C)(C)O3)cn1 [Example Q90, N-(5-(2,2-dimethyl-2,3-dihydro-[1,4]dioxino[2,3-b]pyridin-6-yl)-4-((6-(methylsulfonyl)-3-(tetrahydro-2H-pyran-4-yl)pyridin-2-yl)amino)pyridin-2-yl)acetamide]
Selectivity fold (TYK2/JAK2) (pSTAT5/GM-CSF): >227 fold
